Legend:
[1] = target: GSK3β (Glycogen synthase kinase-3 beta) (Homo sapiens, UniProt P49841); experiment: Assay 6 GSK3β assay (ThermoFisher Z-Lyte FRET); assay type: biochemical; conditions: ATP Conc: 10 μM, geometric mean; read-out: Assay 6 (GSK3β FRET-Z-Lyte Cr) GMean IC50
Protocol: This assay measures the activity of the compounds at GSK33 (Glycogen synthase kinase-3 beta).
The test compounds were screened in 1% DMSO (final) in the well. For 10 point titrations, 3-fold serial dilutions are conducted from the starting concentration of 10 PM.
Bar-coded Corning, low volume NBS, black 384-well plate • 1. 2.5 μL—4× Test Compound or 100 nL 100× plus 2.4 μL kinase buffer • 2. 5 μL—2× Peptide/Kinase Mixture • 3. 2.5 μL—4×ATP Solution • 4. 30-second plate shake • 5. 60-minute Kinase Reaction incubation at room temperature • 6. 5 μL—Development Reagent Solution • 7. 30-second plate shake • 8. 60-minute Development Reaction incubation at room temperature • 9. Read on fluorescence plate reader and analyse the data
In step 2, the 2×GSK3β (GSK3 beta)/Ser/Thr (Glycogen synthase kinase-3 beta/Serine/Threonine) 09 mixture is prepared in 50 mM HEPES (4-(2-hydroxyethyl)-1-piperazineethanesulfonic acid) pH 7.5, 0.01% BRIJ-35, 10 mM MgCl2, 1 mM EGTA (egtazic acid). The final 10 μL Kinase Reaction consists of 0.22-0.92 ng GSK3β (GSK3 beta) and 2 PM Ser/Thr 09 in 50 mM HEPES pH 7.5, 0.01% BRIJ-35, 10 mM MgCl2, 1 mM EGTA.
In step 3 the ATP Solution is diluted to a 4× working concentration in Kinase Buffer (50 mM HEPES pH 7.5, 0.01% BRIJ-35, 10 mM MgCl2, 1 mM EGTA).
In Step 6 the Development Reagent is diluted 1:512 in Development Buffer (10× Novel PKC Lipid Mix: 2 mg/mL Phosphatidyl Serine, 0.2 mg/mL DAG in 20 mM HEPES, pH 7.4, 0.3% CHAPS).
SelectScreen® Kinase Profiling Service uses XLfit from IDBS. The dose response curve is curve fit to model number 205 (sigmoidal dose-response model).

[2] = target: T1, potassium ion channel hERG (Homo sapiens, UniProt Q12809); experiment: Assay 5 hERG assay (patch clamp, CHO cells over-expressing hERG); assay type: cell-based; conditions: SyncroPatch 384PE, room temperature, geometric mean, read-out: Assay 5 (hERG Hu CHO if EPh CR-Syncro) GMean IC50
T1 construct: expressed in transfected cells; host or cells: Chinese hamster ovary K1 (CHO)
Protocol: This assay (human Ether-d-go-go-Related Gene) measures activity of the compounds at the potassium ion channel hERG (human Ether-d-go-go-Related Gene).
Experiments were performed on the SyncroPatch 384PE high throughput patch clamp platform at room temperature and medium resistance chips with 4 patch holes per site. Chinese hamster ovary K1 (CHO) cell lines over-expressing the ion channel of choice (hERG) were used in assay-ready format and kept in liquid nitrogen or were used from live culture. Cells were either thawed and diluted in HBSS or were detached from flasks and resuspended in HBSS. HBSS comprised 140 mM NaCl, 4 mM KCl, 10 mM HEPES and 5 mM Glucose (pH7.4). The internal patch clamp solution was KF 120 mM, KCl 20 mM, HEPES 10 mM, EGTA 10 mM, and 25 PM Escin (pH 7.2). After the sealing process was complete, the external solution was exchanged for external patch clamp solution comprising NaCl 80 mM, KCl 4 mM, HEPES 10 mM, CaCl2 2 mM, MgCl2 1 mM, glucose 5 mM, and NMDG 60 mM (pH 7.4). All solutions were stored at room temperature, except Escin, which was stored at 4° C. All test compounds were dispensed in greiner-bio 384 well plates and tested in a 6 point cumulative assay (final DMSO concentration 0.33%). Only wells that passed previously agreed acceptance criteria for this platform were used in this analysis (30 MegaOhm seal resistance, Z prime >0.4 and current size >0.2 nA). […]

PCSK9 = PCSK9 (Homo sapiens, UniProt Q8NBP7, G670E/V474I); experiment: biochemical
PCSK9, sequence (Q8NBP7 with tags, fused parts or gaps V474I/G670E): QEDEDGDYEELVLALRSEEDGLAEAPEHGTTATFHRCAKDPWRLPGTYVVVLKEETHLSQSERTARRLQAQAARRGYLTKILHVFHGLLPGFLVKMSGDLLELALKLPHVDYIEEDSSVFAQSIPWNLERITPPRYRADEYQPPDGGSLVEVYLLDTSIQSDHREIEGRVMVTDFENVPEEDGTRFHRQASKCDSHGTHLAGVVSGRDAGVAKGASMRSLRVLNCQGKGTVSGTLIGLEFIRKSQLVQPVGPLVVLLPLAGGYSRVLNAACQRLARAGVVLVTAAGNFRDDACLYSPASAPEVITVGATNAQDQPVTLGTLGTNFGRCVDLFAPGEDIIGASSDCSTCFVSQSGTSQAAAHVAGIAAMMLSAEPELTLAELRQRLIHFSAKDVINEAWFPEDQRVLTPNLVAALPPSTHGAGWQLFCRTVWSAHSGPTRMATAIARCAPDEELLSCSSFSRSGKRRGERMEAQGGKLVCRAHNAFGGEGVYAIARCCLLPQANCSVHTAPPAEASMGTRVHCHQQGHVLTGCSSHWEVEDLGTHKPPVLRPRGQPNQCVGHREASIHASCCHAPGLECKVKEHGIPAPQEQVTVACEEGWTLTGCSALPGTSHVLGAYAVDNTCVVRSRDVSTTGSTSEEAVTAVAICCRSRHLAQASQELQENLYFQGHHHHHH

T1 sequence (Q12809 whole entry): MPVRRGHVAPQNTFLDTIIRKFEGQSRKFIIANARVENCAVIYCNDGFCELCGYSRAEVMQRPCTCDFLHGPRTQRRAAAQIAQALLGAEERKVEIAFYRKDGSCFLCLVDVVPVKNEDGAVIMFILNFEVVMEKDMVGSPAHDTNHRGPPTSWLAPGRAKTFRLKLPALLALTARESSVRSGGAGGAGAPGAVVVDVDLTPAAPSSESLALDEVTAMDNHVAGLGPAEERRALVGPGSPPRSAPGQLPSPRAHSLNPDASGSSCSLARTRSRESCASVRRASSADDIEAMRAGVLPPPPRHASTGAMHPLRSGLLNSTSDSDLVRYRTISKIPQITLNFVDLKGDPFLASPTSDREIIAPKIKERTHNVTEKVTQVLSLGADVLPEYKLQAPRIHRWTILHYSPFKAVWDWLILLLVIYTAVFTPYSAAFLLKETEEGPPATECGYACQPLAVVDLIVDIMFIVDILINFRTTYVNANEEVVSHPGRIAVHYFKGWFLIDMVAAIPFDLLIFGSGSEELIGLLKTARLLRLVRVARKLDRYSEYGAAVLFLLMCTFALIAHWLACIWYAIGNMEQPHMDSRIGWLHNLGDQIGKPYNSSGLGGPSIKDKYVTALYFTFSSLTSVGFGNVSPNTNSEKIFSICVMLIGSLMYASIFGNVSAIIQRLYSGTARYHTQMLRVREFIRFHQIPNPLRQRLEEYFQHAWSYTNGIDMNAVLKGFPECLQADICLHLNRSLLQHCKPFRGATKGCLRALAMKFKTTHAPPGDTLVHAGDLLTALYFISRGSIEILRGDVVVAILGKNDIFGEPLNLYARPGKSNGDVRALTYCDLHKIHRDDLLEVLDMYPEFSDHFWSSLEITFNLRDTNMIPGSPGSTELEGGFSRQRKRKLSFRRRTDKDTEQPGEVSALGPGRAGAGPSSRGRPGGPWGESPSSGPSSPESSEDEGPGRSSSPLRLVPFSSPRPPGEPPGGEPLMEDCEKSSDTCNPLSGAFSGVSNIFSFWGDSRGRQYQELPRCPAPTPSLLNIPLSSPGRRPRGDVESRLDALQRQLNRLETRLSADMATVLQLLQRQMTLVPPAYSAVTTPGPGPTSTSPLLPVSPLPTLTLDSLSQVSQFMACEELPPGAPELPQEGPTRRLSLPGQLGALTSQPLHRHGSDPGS
GSK3β (Glycogen synthase kinase-3 beta), sequence (P49841 whole entry): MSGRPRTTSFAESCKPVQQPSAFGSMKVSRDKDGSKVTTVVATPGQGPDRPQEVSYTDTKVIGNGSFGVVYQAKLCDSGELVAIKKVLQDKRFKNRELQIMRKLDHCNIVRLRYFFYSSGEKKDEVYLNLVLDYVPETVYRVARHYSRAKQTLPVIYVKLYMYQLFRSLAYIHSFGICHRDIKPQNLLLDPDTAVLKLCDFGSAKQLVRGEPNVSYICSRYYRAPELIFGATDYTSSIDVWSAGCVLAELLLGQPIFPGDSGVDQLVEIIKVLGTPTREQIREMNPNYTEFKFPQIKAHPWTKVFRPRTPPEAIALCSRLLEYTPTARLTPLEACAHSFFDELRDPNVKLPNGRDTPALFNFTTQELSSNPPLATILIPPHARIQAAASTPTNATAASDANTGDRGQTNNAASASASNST

SMILES	IC50 [1] [nM]	IC50 [2] [nM]	IC50 (PCSK9) [nM]
COc1c(-c2nnn[nH]2)ccc(F)c1-c1ccc(N[C@H]2CC[C@H](Nc3ncc(C4CC4)nn3)C2)nc1 [Example 169, (1S,3S)—N^1-(6-Cyclopropyl-1,2,4-triazin-3-yl)-N^3-(5-(6-fluoro-2-methoxy-3-(1H-tetrazol-5-yl)phenyl)pyridin-2-yl)cyclopentane-1,3-diamine]	310	> 40100	27
Cc1cnc(N[C@H]2CC[C@H](Nc3ccc(-n4ccc(C#N)cc4=O)cn3)C2)nn1 [Example 183, 6′-(((1S,3S)-3-((6-Methyl-1,2,4-triazin-3-yl)amino)cyclopentyl)amino)-2-oxo-2H-[1,3′-bipyridine]-4-carbonitrile]	> 10000	> 40100	30
Cc1cnc(N[C@H]2CC[C@H](Nc3ccc(-n4nc(Cl)ccc4=O)cn3)C2)nn1 [Example 222]	> 10000	> 40100	8.3
Cc1cnc(N[C@H]2CC[C@H](Nc3ccc(-c4ccccc4C#N)cn3)C2)nn1 [Example 247, 2-(6-(((1S,3S)-3-((6-Methyl-1,2,4-triazin-3-yl)amino)cyclopentyl)amino)pyridin-3-yl)benzonitrile]	> 10000	6600	75
Cc1cnc(N[C@H]2CC[C@H](Nc3ccc(-c4ncccc4C)cn3)C2)nn1 [Example 248]	> 10000	> 40100	13
Cc1cnc(N[C@H]2CC[C@H](Nc3ccc(-n4nc(C)cc4C)cn3)C2)nn1 [Example 249]	> 10000	> 40100	16
Cc1cnc(N[C@H]2CC[C@H](Nc3ccc(-n4c(C)nc(C)c4C#N)cn3)C2)nn1 [Example 250, 2,4-Dimethyl-1-(6-(((1S,3S)-3-((6-methyl-1,2,4-triazin-3-yl)amino)cyclopentyl)amino)pyridin-3-yl)-1H-imidazole-5-carbonitrile]	> 10000	> 40100	108
Cc1nnc(N[C@H]2CC[C@H](Nc3ccc(-n4ccccc4=O)cn3)C2)[nH]c1=O [Example 254, 6′-(((1S,3S)-3-((6-Methyl-5-oxo-4,5-dihydro-1,2,4-triazin-3-yl)amino)cyclopentyl)amino)-2H-[1,3′-bipyridin]-2-one]	6140	> 40100	330
O=c1ccccn1-c1ccc(N[C@H]2CC[C@H](Nc3ncc(Cl)nn3)C2)nc1 [Example 255, 6′-(((1S,3S)-3-((6-Chloro-1,2,4-triazin-3-yl)amino)cyclopentyl)amino)-2H-[1,3′-bipyridin]-2-one]	5330	> 40100	78
CN(C)c1cnc(N[C@H]2CC[C@H](Nc3ccc(-n4ccccc4=O)cn3)C2)nn1 [Example 256, 6′-(((1S,3S)-3-((6-(Dimethylamino)-1,2,4-triazin-3-yl)amino)cyclopentyl)amino)-2H-[1,3′-bipyridin]-2-one]	1680	> 40100	119
O=c1ccccn1-c1ccc(N[C@H]2CC[C@H](Nc3ncc(-c4ccn[nH]4)nn3)C2)nc1 [Example 257, 6′-(((1S,3S)-3-((6-(1H-Pyrazol-5-yl)-1,2,4-triazin-3-yl)amino)cyclopentyl)amino)-2H-[1,3′-bipyridin]-2-one]	2810	> 40100	62
CCSc1cnc(N[C@H]2CC[C@H](Nc3ccc(-n4ccccc4=O)cn3)C2)nn1 [Example 258, 6′-(((1S,3S)-3-((6-(Ethylthio)-1,2,4-triazin-3-yl)amino)cyclopentyl)amino)-2H-[1,3′-bipyridin]-2-one]	237	26100	15
CC(=O)c1cnc(N[C@H]2CC[C@H](Nc3ccc(-n4ccccc4=O)cn3)C2)nn1 [Example 260, 6′-(((1S,3S)-3-((6-Acetyl-1,2,4-triazin-3-yl)amino)cyclopentyl)amino)-2H-[1,3′-bipyridin]-2-one]	1320	> 40000	101
Cc1cnc(N[C@H]2CC[C@H](Nc3ccc(-n4nccc(C#N)c4=O)cn3)C2)nn1 [Example 277, 2-(6-(((1S,3S)-3-((6-Methyl-1,2,4-triazin-3-yl)amino)cyclopentyl)amino)pyridin-3-yl)-3-oxo-2,3-dihydropyridazine-4-carbonitrile]	9560	> 40100	4.9
COc1cccnc1-c1ccc(N[C@H]2CC[C@H](Nc3ncc(C)nn3)C2)nc1 [Example 304, (1S,3S)—N′-(3-Methoxy-[2,3′-bipyridin]-6′-yl)-N^3-(6-methyl-1,2,4-triazin-3-yl)cyclopentane-1,3-diamine]	> 10000	> 40100	96
COc1cccc(-c2ccc(N[C@H]3CC[C@H](Nc4ncc(C)nn4)C3)nc2)n1 [Example 305, (1S,3S)—N′-(6-Methoxy-[2,3′-bipyridin]-6′-yl)-N^3-(6-methyl-1,2,4-triazin-3-yl)cyclopentane-1,3-diamine]	> 10000	3200	91
COc1ccccc1-c1ccc(N[C@H]2CC[C@H](Nc3ncc(C)nn3)C2)nc1 [Example 306, (1S,3S)—N′-(5-(2-Methoxyphenyl)pyridin-2-yl)-N^3-(6-methyl-1,2,4-triazin-3-yl)cyclopentane-1,3-diamine]	> 10000	4500	302
COc1cccc(OC)c1-c1ccc(N[C@H]2CC[C@H](Nc3ncc(C)nn3)C2)nc1 [Example 307, (1S,3S)—N^1-(5-(2,6-Dimethoxyphenyl)pyridin-2-yl)-N^3-(6-methyl-1,2,4-triazin-3-yl)cyclopentane-1,3-diamine]	> 10000	23300	1660
COc1cccc(F)c1-c1ccc(N[C@H]2CC[C@H](Nc3ncc(C)nn3)C2)nc1 [Example 308, (1S,3S)—N′-(5-(2-Fluoro-6-methoxyphenyl)pyridin-2-yl)-N^3-(6-methyl-1,2,4-triazin-3-yl)cyclopentane-1,3-diamine]	> 10000	12000	51
Cc1cnc(N[C@H]2CC[C@H](Nc3ccc(-c4ccccn4)cn3)C2)nn1 [Example 309, (1S,3S)—N′-([2,3′-Bipyridin]-6′-yl)-N^3-(6-methyl-1,2,4-triazin-3-yl)cyclopentane-1,3-diamine]	> 10000	11400	534
Cc1cnc(N[C@H]2CC[C@H](Nc3ccc(-n4cc5ccccc5n4)cn3)C2)nn1 [Example 312, (1S,3S)—N^1-(5-(2H-Indazol-2-yl)pyridin-2-yl)-N^3-(6-methyl-1,2,4-triazin-3-yl)cyclopentane-1,3-diamine]	> 10000	4200	37
Cc1cnc(N[C@H]2CC[C@H](Nc3ccc(-n4nc(C)nc4C)cn3)C2)nn1 [Example 313, (1S,3S)—N^1-(5-(3,5-dimethyl-1H-1,2,4-triazol-1-yl)pyridin-2-yl)-N^3-(6-methyl-1,2,4-triazin-3-yl)cyclopentane-1,3-diamine]	> 10000	> 40100	16
Cc1cnc(N[C@H]2CC[C@H](Nc3ccc(-c4nc(C)oc4C)cn3)C2)nn1 [Example 314, (1S,3S)—N^1-(5-(2,5-Dimethyloxazol-4-yl)pyridin-2-yl)-N^3-(6-methyl-1,2,4-triazin-3-yl)cyclopentane-1,3-diamine]	> 10000	25700	110

Source: patent US20240228469A1, “PCSK9 INHIBITORS AND METHODS OF USE THEREOF” (AstraZeneca AB, priority 2022, published 2024)
